Results published in US10022357B2, “Amyloid precursor protein MRNA blockers for treating Down syndrome and Alzheimer's disease” (THE GENERAL HOSPITAL CORPORATION, priority 2013, dated 2018).
“Also recorded” adds a separate entry of the source. Like-named read-outs stand apart in the source and are kept apart here.

Legend:
[1] = system: APP 5′UTR; assay type: cell-based, human
Protocol: The LDDN library had already yielded small molecules that inhibit mesangial cell proliferation, following three-dimensional pharmacophore modeling and screening. A second Molecular Libraries Screening Centers Network HTS was conducted at the Columbia University Genome Center to generate hits as listed on PUBCHEM (AID: 1285), from which the dose-response assays identified 50 lead APP 5′UTR-directed luciferase reporter inhibitors. […] These were directly measured and found not to inhibit luciferase enzyme activity. […] These thirteen leads were tricyclic aromatic compounds that included two major classes of hits: compounds with a benzimidazole backbone, i.e. APP blockers 2, −7, and −9 (JTR-009) and compounds with a benzothiazole backbone, i.e. APP blockers −8 and −13. The compounds with a benzothiazole backbone were also identified to be similar to PFTα, another benzothiazole, and P53 inhibitor, by showing protection against oxidative injuries in synaptosomes from wild-type mice and preserving presynaptic terminals in cultured hippocampal neurons exposed to etoposide).
APP 5′UTR-Luciferase inhibitor compounds obtained from the preliminary HTS of pIRES-APP-5′UTR transfectants were picked, and the dose-response assays were conducted at 0.1, 1.0, and 5.0 μM (based on the exact molecular weights of the compounds). […] Each hit was added in 5 wells, and this was repeated twice on 2 different days. There was a positive control and negative control column of cells as previously described.
To identify APP 5′UTR-specific translation blockers from LDDN Harvard (see ref [21]) and from the Columbia University Genome center, the inventors then counter-screened against the PrP 5′UTR and shortlisted thirteen potent inhibitors to be further characterized. In FIG. 1D, the listed constructs were employed to conduct these transfection based assays to ensure that the 13 APP specific leads were not also PrP inhibitors. Table 1 lists the IC50 of each of these inhibitors with respect to their dose-responsive capacity to reduce APP 5′UTR-driven luciferase expression relative to their IC50 values against PrP 5′UTR expression.

[2] = system: IRP1 binding to APP IRE; experiment: Biotinylated RNA pulldown assay, IRP1 binding to APP IRE probe; parameters: species or system human
Protocol: (§1) Biotinylated RNA oligonucleotides: […] Paramagnetic streptavidin-conjugated Dynabeads (Invitrogen) were washed with ribonucleoprotein immunoprecipitation buffer, added into lysates to bind IRP(1/2)-biotinylated-RNA complexes, and incubated for 1 hour at room temperature. After five washes, the proteins that bound to the beads were analyzed by Western blotting for IRP1, IRP2, and biotin. […] The IREs-bound IRPs were quantified by Quantity One® software (Bio-Rad).

[3] = system: APP; experiment: Western blot of APP levels in primary mouse cortical neurons
Protocol: Primary cortical neurons from wild type mice and from the PAC-Tg(SNCA(wt) human SNCA genomic mice [22] were cultured as outlined by the method of Ray et al., 2009 [23]. The embryonic (E15-18) pups were recovered after sacrificing pregnant females, separated out the brain, and removed the meninges and blood vessels. The cortices were then dissected out and placed them in separate Eppendorf tubes containing 500 uL of HBSS without Ca+^2/Mg^+2 salts supplemented with 1 mM sodium pyruvate and 10 mM HEPES, pH 7.4. On ice, individual cells were isolated by titrating 10 times using a glass pasture pipette with the tip barely fire polished. […]
(§3) After cells were exposed to increasing concentrations of the compounds as outlined in each figure legend, cytoplasmic protein lysates were prepared by homogenizing the cells in midRIPA buffer (25 mM Tris pH 7.4, 1% NP40, 0.5% sodium deoxycholate, 15 mM NaCl, protease inhibitors, RNase inhibitor and 10 μM DTT). Western blotting for APP was performed using the N-terminal 22C11 antibody (Millipore, Inc) and the A8717 C-terminal specific APP antibody (Sigma, inc), while αsyn was detected using mouse monoclonal anti-αsyn (BD Transduction Laboratories) and anti-β-actin (Chemicon). […] The bands were quantified using QuantityOne® software (BioRad).

[4] = system: IRP1 and IRP2 binding to H-ferritin IRE; experiment: Biotinylated RNA pulldown assay, IRP1/IRP2 binding to H-ferritin IRE probe; parameters: species or system human; conditions: same conditions as APP IRE pulldown
Protocol: as §1

[5] = system: PrP 5′UTR; experiment: cells; conditions: Homo sapiens, SH-SY5Y, read-out: IC50 to reduce 5′UTR driven luciferase expression in pIRES-PrP-5′UTR transfectants
[6] = system: APP and amyloid-beta; assay type: cell-based; conditions: Table 2; printed in brackets as max; read-out: APP and amyloid-beta Inhibition (IC50), max
[7] = system: α-synuclein (SNCA); experiment: Western blot of α-synuclein levels in primary mouse neurons
Protocol: Primary cortical neurons from wild type mice and from the PAC-Tg(SNCA(wt) human SNCA genomic mice [22] were cultured as outlined by the method of Ray et al., 2009 [23]. The embryonic (E15-18) pups were recovered after sacrificing pregnant females, separated out the brain, and removed the meninges and blood vessels. The cortices were then dissected out and placed them in separate Eppendorf tubes containing 500 uL of HBSS without Ca+^2/Mg^+2 salts supplemented with 1 mM sodium pyruvate and 10 mM HEPES, pH 7.4. On ice, individual cells were isolated by titrating 10 times using a glass pasture pipette with the tip barely fire polished. The volume was adjusted to 1.5 mL, by adding 1 mL of HBSS with Ca^+2/Mg^+2 salts+Na. pyruvate+HEPES, restoring the divalent cations by adding HBSS so that the non-dispersed tissue could settle for 5 min, on ice. In the tissue culture laminar hood, the supernatant was transferred into a new 15 mL tube and centrifuged for 1 minute at 900 rpm, 4° C. The pellet was gently re-suspended in 2 mL of HBSS with Ca^+2/Mg^+2 salts+Na pyruvate+HEPES and took an aliquot for counting (2 mL for approx 5 embryos). The cells were then plated at ˜1×10^5 cells/well of a 24 well or 2×10^5/in 12 well plates. Each set of plates was coated with poly D-lysine containing poly L-lysine coverslips for micro immuncytochemical confirmation of neuronal integrity.
as §3

[8] = system: APP
Protocol: After cells were exposed to increasing concentrations of the compounds as outlined in each figure legend, cytoplasmic protein lysates were prepared by homogenizing the cells in midRIPA buffer (25 mM Tris pH 7.4, 1% NP40, 0.5% sodium deoxycholate, 15 mM NaCl, protease inhibitors, RNase inhibitor and 10 μM DTT). Western blotting for APP was performed using the N-terminal 22C11 antibody (Millipore, Inc) and the A8717 C-terminal specific APP antibody (Sigma, inc), while αsyn was detected using mouse monoclonal anti-αsyn (BD Transduction Laboratories) and anti-β-actin (Chemicon). The blots were developed using chemiluminescence (PIERCE, Rockford, Ill.) and visualized with a Phosphoimager (BioRad, Hercules, Calif.). The bands were quantified using QuantityOne® software (BioRad).

[9] = system: APP mRNA; assay type: cell-based, human
Protocol: (§2) qRT-PCR was conducted to measure the capacity of JTR-009 to change steady state levels of […] levels, as was previously described (see Ref [6]). Desferrioxamine treatment was used for a positive control to assess changes to the steady state levels of both APP mRNA and transferrin receptor mRNAs. Primers for β-actin were employed as a control for an mRNA previously shown to be unchanged by desferrioxamine and other inducers. Experiments were carried out on the ABI Prism 7000 sequence detection system (Applied Biosystems). […] The primers to β-actin, TfR1 were designed and ordered from Invitrogen. The APP primer set was purchased from Qiagen and has been benchmarked on several reports for accurate measurement of APP mRNA levels.

[10] = system: TfR mRNA; assay type: cell-based, human; conditions: iron chelation, 25 μM, positive control
Protocol: as §2

[11] = system: APP and amyloid-beta; conditions: Table 2; Refs 27, 33; read-out: APP and amyloid-beta Inhibition (IC50); cited from earlier work

COc1cc(SC)ccc1C(=O)Nc1nc2ccccc2[nH]1 [BL-1]
concentration to inhibit APP 5′UTR conferred translation, times less than strophanthidin ([1]; FIG. 8, relative to strophanthidin): 500 times

Cc1ccc2[nH]c(-c3ccc(N)cc3)nc2c1 [JTR-009, 4-(5-methyl-1H-benzimidazol-2yl) aniline]
reduction of IRP1 binding to biotinylated APP IRE RNA probes ([2]; 0.3 μM, N=7): 20% | fold reduction of IRP1 binding to the APP IRE ([2]; 3 μM, 48 hour exposure): 2 fold | reduction of IRP1 binding to biotinylated APP IRE RNA probes ([2]; 3 μM, N=7): 50% | IRP1 binding to biotinylated APP IRE RNA probes ([2]; 30 μM, N=7): completely inhibited | reduction of APP levels ([3]; concentrations as low as 10 nM, primary mouse cortical neurons): 60% | lowest dose that inhibited APP levels ([3]; primary mouse E-18 neurons): 1 nM | IRP1/IRP2 binding to H-ferritin IRE probes [4]: always maintained; also recorded: no inhibitory change | IC50 [5]: 4000 nM | IC50 [6]: 10 nM | average pair-wise reduction of SNCA levels (threshold) ([7]; 0.001 μM, 48 hours): 50% | α-synuclein (SNCA) levels ([7]; primary mouse neurons, same treatment as APP reduction): unchanged; also recorded: no significant changes | concentration that limits APP translation [8]: less than one | reduction of APP in lysate supernatants of RNA pulldown ([8]; 3 μM): 35% | reduction of APP (densitometry, β-actin standardized) ([8]; 20 μM, 48 hour treatment): 50% | reduction of APP in lysate supernatants of RNA pulldown ([8]; 30 μM): 70% | APP levels, percent of control levels ([8]; 30 μM, 48 hours, N=5): 30% | IC50 ([8]; read-out: IC50 for translational inhibition of APP, dose-responsive assays): < 1000 nM | reduction of APP 5′UTR activity ([1]; 0.1 μM drug, N=4): two-fold | IC50 ([1]; Homo sapiens, SH-SY5Y, 384-plate assays, inhibition curves, first IC50 line of Table 1, read-out: IC50 to reduce 5′UTR driven luciferase expression in pIRES-APP-5′UTR transfectants): 400 nM | IC50 ([1]; Homo sapiens, SH-SY5Y, FIG. 4A, dose response, N=4, read-out: IC50 to limit APP 5′UTR-luciferase expression): 100 nM | IC50 ([1]; Homo sapiens, SH-SY5Y, Table 2, read-out: APP 5′UTR Inhibition (IC50)): 100 nM | IC50 ([1]; Homo sapiens, SH-SY5Y, dose-responsive measurements, range, read-out: IC50 against the APP 5′UTR): 1 to 100 nM | fold more potent/effective than posiphen to limit APP 5′UTR driven translation ([1]; relative to posiphen, listed as Formula I): about 10 fold | APP mRNA levels ([9]; 0.1 nM to 10 μM drug, N=4): unchanged | increase of APP mRNA levels ([9]; 100 μM): ~10%

CC(=O)N(O)CCCCCNC(=O)CCC(=O)N(O)CCCCCNC(=O)CCC(=O)N(O)CCCCCN [desferrioxamine, reference compound]
increase of transferrin receptor mRNA levels [10]: 2 fold | APP mRNA levels ([9]; iron chelation with desferrioxamine): unchanged

CN1CC[C@]2(C)c3cc(OC(=O)Nc4ccccc4)ccc3N(C)[C@H]12 [posiphen, reference compound]
increase of APP 5′UTR activity ([1]; 0.1 μM drug, matched conditions): 15% | IC50 ([1]; FIG. 4A, dose response, N=4, read-out: IC50 to limit APP 5′UTR-luciferase expression): 5000 nM | IC50 [11]: 1000 nM
